ChEMBL document CHEMBL3734752, “Acylhydrazone derivatives as potential anticancer agents: Synthesis, bio-evaluation and mechanism of action” (Bioorg Med Chem Lett, 2015)
In brackets after ≈: the same amount, converted by molar mass. Activity calls are given as the source filed them. The rule behind the calls is not given here.

Key:
[1] = (§1) Cytotoxicity against human HuH7 cells assessed as inhibition of cell proliferation after 72 hrs by MTT assay; type: functional, cell-based; conditions: Huh-7, 72 h
[2] = test system: HepG2; assay: Cytotoxicity against human HepG2 cells assessed as inhibition of cell proliferation after 72 hrs by MTT assay; type: functional, cell-based; conditions: for IC50: HepG2, 72 h
[3] = (§2) Cytotoxicity against human BCG823 cells assessed as inhibition of cell proliferation after 72 hrs by MTT assay; type: functional, cell-based; conditions: BCG823, 72 h
[4] = (§3) Cytotoxicity against human HuH7 cells assessed as inhibition of cell proliferation at 40 ug/ml after 72 hrs by MTT assay; type: functional; conditions: Huh-7, 72 h
[5] = test system: HepG2; assay: Induction of apoptosis in human HepG2 cells assessed as viable cells at 2 times IC50 after 24 hrs by Annexin V-FITC/propidium iodide staining-based flow cytometry (reference value: 97 %); type: functional
[6] = test system: HepG2; assay: Induction of apoptosis in human HepG2 cells assessed as early apoptotic cells at 2 times IC50 after 24 hrs by Annexin V-FITC/propidium iodide staining-based flow cytometry (reference value: 1.2 %); type: functional
[7] = test system: HepG2; assay: Induction of apoptosis in human HepG2 cells assessed as early apoptotic cells at IC50 concentration after 24 hrs by Annexin V-FITC/propidium iodide staining-based flow cytometry (reference value: 1.2 %); type: functional
[8] = test system: HepG2; assay: Cytotoxicity against human HepG2 cells assessed as inhibition of cell proliferation at 40 ug/ml after 72 hrs by MTT assay; type: functional, cell-based
[9] = test system: BCG823; assay: Cytotoxicity against human BCG823 cells assessed as inhibition of cell proliferation at 40 ug/ml after 72 hrs by MTT assay; type: functional, cell-based
[10] = test system: HepG2; assay: Induction of apoptosis in human HepG2 cells assessed as necrotic cells at 2 times IC50 after 24 hrs by Annexin V-FITC/propidium iodide staining-based flow cytometry (reference value: 1.6 %); type: functional
[11] = test system: HepG2; assay: Induction of apoptosis in human HepG2 cells assessed as necrotic cells at IC50 concentration after 24 hrs by Annexin V-FITC/propidium iodide staining-based flow cytometry (reference value: 1.6 %); type: functional
[12] = test system: HepG2; assay: Induction of apoptosis in human HepG2 cells assessed as late apoptotic cells at IC50 concentration after 24 hrs by Annexin V-FITC/propidium iodide staining-based flow cytometry (reference value: 0.2 %); type: functional
[13] = test system: HepG2; assay: Induction of apoptosis in human HepG2 cells assessed as viable cells at IC50 concentration after 24 hrs by Annexin V-FITC/propidium iodide staining-based flow cytometry (reference value: 97 %); type: functional
[14] = test system: BCG823; assay: as §2; type: functional, cell-based
[15] = test system: Huh-7; assay: as §3; type: functional
[16] = test system: HepG2; assay: Induction of apoptosis in human HepG2 cells assessed as late apoptotic cells at 2 times IC50 after 24 hrs by Annexin V-FITC/propidium iodide staining-based flow cytometry (reference value: 0.2 %); type: functional
[17] = test system: Huh-7; assay: as §1; type: functional, cell-based

| Structure (SMILES) | IC50 [1] | IC50 [2] | IC50 [3] | also measured |
| --- | --- | --- | --- | --- |
| COc1cc(/C=N/NC(=O)c2ccc(CSc3nc(C)cc(C)n3)cc2)cc(OC)c1OC | 17.4 µg/mL (≈ 37.3 µM) | 33.3 µg/mL (≈ 71.3 µM) | 36.8 µg/mL (≈ 78.8 µM) |  |
| O=C(CSc1nc2ccccc2s1)N/N=C/c1c[nH]c2ccccc12 | 32.9 µg/mL (≈ 89.7 µM) | > 80 µg/mL | > 80 µg/mL | inhibition at 40 µg/mL [4]: 55% |
| O=C(N/N=C/c1c[nH]c2ccccc12)c1ccc(CSc2nc3ccccc3s2)cc1 | 7.74 µg/mL (≈ 17.5 µM) | > 80 µg/mL | > 80 µg/mL | inhibition at 40 µg/mL [4]: 74% |
| C/C(=N\NC(=O)c1ccc(CSc2nc(C)cc(C)n2)cc1)c1ccc(F)cc1 | 3.25 µg/mL (≈ 7.96 µM) | 4.85 µg/mL (≈ 11.9 µM) | 3.88 µg/mL (≈ 9.5 µM) | Activity [5]: 76.3%; Activity [6]: 16.5%; Activity [7]: 10.3%; inhibition [8]: Active; inhibition [9]: Active; Activity [10]: 4.9%; Activity [11]: 4.5%; inhibition [2]: Dose-dependent effect; Activity [12]: 1.4%; Activity [13]: 83.8%; inhibition [14]: Dose-dependent effect; inhibition [15]: Active; Activity [16]: 2.3% |
| O=C1Nc2ccccc2/C1=N/NC(=O)c1ccc(CSc2nc3ccccc3s2)cc1 | 4.58 µg/mL (≈ 10.3 µM) | 5.71 µg/mL (≈ 12.8 µM) | 11.9 µg/mL (≈ 26.7 µM) | Activity [5]: 77.7%; Activity [6]: 14.5%; Activity [7]: 5.5%; inhibition [8]: Active; inhibition [9]: Active; Activity [10]: 5.6%; Activity [11]: 1.6%; inhibition [2]: Dose-dependent effect; Activity [12]: 3.7%; Activity [13]: 89.3%; inhibition [14]: Dose-dependent effect; inhibition [15]: Active; Activity [16]: 2.2% |
| C/C(=N\NC(=O)c1ccc(CSc2nc3ccccc3s2)cc1)c1ccc([N+](=O)[O-])cc1 | 4.46 µg/mL (≈ 9.64 µM) | 35.7 µg/mL (≈ 77.2 µM) | 31.3 µg/mL (≈ 67.7 µM) |  |
| C/C(=N\NC(=O)c1ccc(CSc2nc3ccccc3s2)cc1)c1ccc(C)c([N+](=O)[O-])c1 | > 80 µg/mL | > 80 µg/mL | > 80 µg/mL |  |
| O=C(CSc1nc2ccccc2s1)N/N=C1\C(=O)Nc2ccccc21 | 13.1 µg/mL (≈ 35.6 µM) | 23.9 µg/mL (≈ 65 µM) | 17.7 µg/mL (≈ 48 µM) | inhibition [8]: Active; inhibition [9]: Active; inhibition [15]: Active |
| COc1cc(/C=N/NC(=O)CSc2nc3ccccc3s2)cc(OC)c1OC | > 80 µg/mL | > 80 µg/mL | > 80 µg/mL |  |
| COc1cc(/C=N/NC(=O)c2ccc(CSc3nc4ccccc4s3)cc2)cc(OC)c1OC | > 80 µg/mL | > 80 µg/mL | > 80 µg/mL |  |
| C/C(=N\NC(=O)c1ccc(CSc2nc(C)cc(C)n2)cc1)c1ccc(C)c([N+](=O)[O-])c1 | > 80 µg/mL | > 80 µg/mL | > 80 µg/mL |  |
| O=c1[nH]cc(F)c(=O)[nH]1 [FLUOROURACIL] | 10.4 µg/mL (≈ 80 µM) | 36 µg/mL (≈ 277 µM) | 17.4 µg/mL (≈ 134 µM) | inhibition [17]: Dose-dependent effect; inhibition [2]: Dose-dependent effect; inhibition [14]: Dose-dependent effect |
| C/C(=N\NC(=O)CSc1nc2ccccc2s1)c1ccc(C)c([N+](=O)[O-])c1 | 10.1 µg/mL (≈ 25.1 µM) | 33 µg/mL (≈ 82.3 µM) | 17.8 µg/mL (≈ 44.5 µM) | inhibition [8]: Active; inhibition [9]: Active; inhibition [17]: Dose-dependent effect; inhibition [2]: Dose-dependent effect; inhibition [14]: Dose-dependent effect; inhibition [15]: Active |
| Cc1cc(C)nc(SCc2ccc(C(=O)N/N=C/c3c[nH]c4ccccc34)cc2)n1 | 23.2 µg/mL (≈ 55.9 µM) | 34.1 µg/mL (≈ 82.2 µM) | 35.5 µg/mL (≈ 85.5 µM) |  |
| C/C(=N\NC(=O)CSc1nc2ccccc2s1)c1ccc([N+](=O)[O-])cc1 | 39.7 µg/mL (≈ 103 µM) | > 80 µg/mL | 35.7 µg/mL (≈ 92.4 µM) |  |
